Experimental data as given in patent US12054501B2, “Compositions and methods for inhibiting arginase activity” (Precision Pharmaceuticals Inc., priority 2016, dated 2024).
“Also recorded” adds a separate entry of the source.

Assays:
[1] = system: Lewis Lung Carcinoma cells; experiment: Lewis Lung Carcinoma efficacy study (tumor volume over time); type: in vivo; conditions: single agent, dosed orally twice daily at 50, 100 or 200 mg/kg; C57BL/6 mice implanted with Lewis Lung Carcinoma cells; relative to control
Protocol: Female C57.Bl/6 mice (n=40) were implanted subcutaneously with 1×10^6 Lewis Lung Carcinoma cells suspended in PBS. The day following implantation, mice were randomized into 4 groups of n=10 mice to receive the following treatments dosed orally twice daily until study end: 1) Vehicle (water); 2) Compound 10 at 50 mg/kg formulated in water; 3) Compound 10 at 100 mg/kg formulated in water; or 4) Compound 10 at 200 mg/kg formulated in water. Tumors were measured three times per week with digital calipers and tumor volumes calculated with the following formula: tumor volume (mm^3)=(a×b^2/2) where ‘b’ is the smallest diameter and ‘a’ is the largest perpendicular diameter. ***P-value <0.001, ****P-value <0.0001 (Two-sided T-test).

[2] = Moisture sorption/desorption isotherm (TGA study, humidity uptake); type: physicochemical
Protocol: In the TGA study, a weighted amount of compound 10e was treated with increasing amounts of water vapor (increased humidity) and the impact of humidity on the weight of the sample was evaluated.

[3] = Hydrolysis of the ethanolate in water (NMR in D2O, HPLC-MS); type: physicochemical; conditions: hydrolysis to the open free boronic acid form, compound 10
Protocol: The rapid conversion of compound 10e to compound 10 in water was confirmed by the similarity of a spectrum of 10e in D2O to a spectrum of 10 in D2O. When a sample of compound 10e was dissolved in D2O and the spectra immediately recorded (elapsed time <5 minutes), the spectra observed is identical to a spectra of compound 10 (the free boronic acid) plus ethanol (1:1 ratio). The spectrum of 10e in D2O was the same at 5 minutes and one hour after sample preparation, indicating the transformation was rapid and complete after a few minutes.
The NMR spectra (D2O) labeled A is compound 10 (free base) prepared from 11 as described in Example 2. The NMR spectra (D2O) labeled B is an analytical sample of compound 10e prepared as described above. The NMR spectra (D2O) labeled C is the sample from spectra B that has been lyophilized and redissolved in D2O.
Upon dissolution in 1:1 water/acetonitrile and immediate injection into an HPLC system, only a single peak is observed. The mass of this peak is consistent with compound 10.

C[C@H](N)C(=O)N1C[C@H](CCCB(O)O)[C@](N)(C(=O)O)C1 [Compound 10]
tumor growth (tumor volume over time) [1]: slows tumor growth relative to control
hysteresis of sorption and desorption isotherms [2]: minimal hysteresis
hygroscopicity ([2]; as humidity is increased): absorbs increasing amounts of water as the humidity increases; also recorded: hygroscopic
observed moisture uptake ([2]; at 90% relative humidity (RH)): over 70%

CCOB1CCC[C@H]2CN(C(=O)[C@H](C)N)C[C@@]2(N)C(=O)O1 [Compound 10e, (6aS,9aR)-8-(L-alanyl)-9a-amino-3-ethoxyoctahydro-[1,2]oxaborocino[6,7-c]pyrrol-1(3H)-one]
stability under physiological conditions or any other aqueous conditions [3]: rapidly hydrolyzes
